Experiments:
[1] = tested on: osteoarthritis-induced New Zealand white rabbits; test: Distribution and number of synovial cells; type: in vivo
Method: (§1) To prepare an osteoarthritis animal model, New Zealand white rabbits underwent anterior cruciate ligament transection (ACLT) in joints of their two hind legs. After three days, the rabbits were forced to sustain movement for four weeks in a space of 5×5 m^3 to induce substantial osteoarthritis. […] The following Examples 3 to 10 were all performed using joints of the osteoarthritis-induced New Zealand white rabbits prepared as in this Example 2.
Tissues were prepared according to the same method as in Example 9 and evaluated for cell number and the condition of their surfaces. Cell number was measured at a site 120 μm in depth.

[2] = tested on: osteoarthritis-induced New Zealand white rabbits; test: Total protein levels in joint synovial fluids (Bradford); type: in vivo
Description: as §1
As cartilage is destroyed with the progress of osteoarthritis, proteins contained therein are released into synovial fluids. With this respect, total protein levels were measured in synovial fluids. Using the joint synovial fluids prepared in Example 3, total protein levels in synovial fluids were measured using a Bradford method. 50 μl of a synovial fluid was mixed with 200 μl of a protein analysis reagent (500-0006, Bio-Rad) and allowed to stand at room temperature for 5 min, and absorbance was then measured at 595 nm.

cancer cells = conditions: background statement; cited from earlier work
iNOS = test: Western blotting of iNOS expression in LPS-treated RAW 264.7; type: cell-based, mice; conditions: LPS treatment = 100%, upon apigenin treatment
Method: (§2) A macrophage cell line derived from mice, RAW 264.7 (KCLB 40071), was purchased from the Korean Cell Line Bank. RAW 264.7 cells were seeded in a density of 3×10^6 cells onto 60-mm culture dishes containing DMEM (Dulbecco's Modified Eagle Medium, 12800-017, Gibco) supplemented with 10% FBS (fetal bovine serum, 26140-079, Gibco), 100 U/ml of penicillin and 100 μg/ml streptomycin (15140-122, Gibco), and cultured at 37° C. under 5% CO2 and humidity for 24 hrs. To induce NO production, RAW 264.7 cells were treated with 500 ng/ml of an E. coli cell wall component, lipopolysaccharide (LPS, […], Sigma). […] Herein, LPS was dissolved in distilled water, and apigenin was dissolved in DMSO. Then, the culture medium and a Griess reagent were mixed at a ratio of 1:1 (100 μl: 100 μl) and allowed to stand at room temperature for 10 min. Thereafter, absorbance was measured at 540 nm using a spectrophotometer (Power Wave X340, Bio-Tek). RAW 264.7 cells were treated under the same conditions as in Example 12. […] Herein, for IκBα expression, the cells were treated with LSP for only two hours. […] After protein concentrations in cell lysates were measured, […] protein samples were separated on an 8-16% SDS (sodium dodecyl sulfate) polyacrylamide gel (EC60452, NOVEX). […]

[3] = tested on: osteoarthritis-induced New Zealand white rabbits; test: Total joint synovial fluid volume (Arsenazo III) in osteoarthritis-induced rabbits; type: in vivo
Description: as §1
Typically, synovial fluid volume increases with inflammation as osteoarthritis progresses. […] The supernatants were used in this test.
Since synovial fluid volume has been reported to change according to the progress of osteoarthritis, total synovial fluid volume was measured to investigate changes in synovial fluids according to osteoarthritis induction and drug treatment. Synovial fluid volume was determined by measuring Ca^2+ concentrations in synovial fluids using an Arsenazo III complexion method (Michaylova V. et al., Anal. Chim. Acta, 53:194 (1971)). Total synovial fluid volume was calculated using a Donnan equilibrium equation. 0.01 ml of a synovial fluid was mixed with 1 ml of an Arsenazo III reagent (588-3, Sigma) and allowed to stand at room temperature for 5 min. Absorbance was measured at 600 nm using a spectrophotometer (DU650, Beckman).

IκBα = test: Western blotting of IκBα expression in LPS-treated RAW 264.7; type: cell-based, mice; conditions: normal = 100%, LPS (two hours) 18.56%, 10 μM of apigenin
Method: as §2

[4] = tested on: osteoarthritis-induced New Zealand white rabbits; test: H&E staining and safranin-O staining of joint cartilage; type: in vivo; conditions: apigenin treatment group compared to control group
Description: Distal femurs were collected from experimental animals and fixed with 4% formalin (F8775, Sigma) for over 24 hrs. An area of the distal femur to be analyzed was sectioned into a 5-mm thickness, decalcified with 5% nitric acid (25, 811-3, Sigma) for over 24 hrs and embedded into paraffin to provide a paraffin block. The paraffin block was sectioned, and the resulting 4-μm sections were subjected to H&E staining and staining with a cartilage-specific dye, safranin-O (S2255, Sigma), and observed under an optical microscope to evaluate the condition of cartilage.

[5] = tested on: osteoarthritis-induced New Zealand white rabbits; test: Nitric oxide levels in synovial fluids (Griess reaction); type: in vivo
Description: as §1
A synovial fluid and a Griess reagent were mixed at a ratio of 1:1 (100 μl: 100 μl) and allowed to stand at room temperature for 10 min, and absorbance was measured at 540 nm using a spectrophotometer (Power Wave X340, Bio-Tek). The Griess reagent was prepared in a final volume of 10 ml using 0.1 g of sulfanilamide (S9251, Sigma), 0.5 ml of phosphoric acid (P6560, Sigma) and 0.01 g of N-naphthyl-diamine-H-chloride (102397, ICN). A quantitative curve for nitrite was obtained using sodium nitrite (S2252, Sigma).

[6] = apigenin-treated right leg (+), four weeks after drug injection
[7] = apigenin-treated right leg (+), four weeks after drug injection, listed as Apigenin
[8] = apigenin-treated right leg (+), two weeks after drug injection
[9] = non-treated left leg (−) of apigenin treatment group, four weeks after drug injection
[10] = non-treated left leg (−) of apigenin treatment group, two weeks after drug injection

Structure (SMILES): O=c1cc(-c2ccc(O)cc2)oc2cc(O)cc(O)c12 [apigenin, 4′,5,7-trihydroxyflavone]
- decrease in synovial cell number compared to the control group ([1]; after osteoarthritis induction): about 34.5%
- number of synovial cells ([1]; after osteoarthritis induction, measured at a site 120 μm in depth, control group 632.3): 406.6
- surface of synovial membrane section ([1]; right leg, compared with control group treated with physiological saline): relatively smooth surface
- Total protein levels in joint synovial fluids [2, 6]: about 24.91 mg/ml
- Total protein levels in joint synovial fluids [2, 7]: 24.91 ± 0.35 mg/mL
- Total protein levels in joint synovial fluids [2, 8]: 16.64 ± 0.3 mg/mL
- Total protein levels in joint synovial fluids [2, 9]: 36.37 ± 0. mg/ml
- Total protein levels in joint synovial fluids [2, 10]: 20.36 ± 0.69 mg/mL
- concentration at which apigenin acts effectively (anticancer activity) (cancer cells): lower than 50 μM
- iNOS expression level (iNOS): 0%
- Total synovial fluid volume ([3]; apigenin-treated right leg (+), 50 μg once per week, four weeks after drug injection): about 1.16 ml
- Total synovial fluid volume ([3]; apigenin-treated right leg (+), 50 μg once per week, four weeks after drug injection, listed as Apigenin): 1.16 ± 0.03 mL
- Total synovial fluid volume ([3]; apigenin-treated right leg (+), 50 μg once per week, two weeks after drug injection): 1.13 ± 0.08 mL
- Total synovial fluid volume [3, 9]: about 1.58 ml
- Total synovial fluid volume ([3]; non-treated left leg (−) of apigenin treatment group, four weeks after drug injection, listed as Apigenin): 1.58 ± 0.24 mL
- Total synovial fluid volume [3, 10]: 1.17 ± 0.08 mL
- IκBα expression level (IκBα): 75.82%
- condition of cartilage by H&E and safranin-O staining [4]: damaged areas of cartilage were found to be restored
- NO levels in synovial fluids [5, 6]: about 6.01 μM
- NO levels in synovial fluids [5, 7]: 6.01 ± 0.88 µM
- NO levels in synovial fluids [5, 8]: 7.53 ± 4.66 µM
- NO levels in synovial fluids [5, 9]: 5.5 ± 4.59 µM
- NO levels in synovial fluids [5, 10]: 0.65 ± 0.06 µM

— US20070154540A1 (KMSI CO., LTD., priority 2003, published 2007)
